From US20250171438A1 (Agios Pharmaceuticals, Inc., priority 2022, published 2025)

molecular target: T1, human PAH with the R408W mutation (Homo sapiens, UniProt P00439, R408W); test: Cell Based Phenylalanine Flux Assay; conditions: A375 cells expressing human R408W PAH; 24 hrs compound incubation; 13C-Tyrosine by LC-MS; average where tested multiple times; read-out: AC50
T1 construct: expressed in transfected cells
T1 sequence (P00439 1-452 R408W): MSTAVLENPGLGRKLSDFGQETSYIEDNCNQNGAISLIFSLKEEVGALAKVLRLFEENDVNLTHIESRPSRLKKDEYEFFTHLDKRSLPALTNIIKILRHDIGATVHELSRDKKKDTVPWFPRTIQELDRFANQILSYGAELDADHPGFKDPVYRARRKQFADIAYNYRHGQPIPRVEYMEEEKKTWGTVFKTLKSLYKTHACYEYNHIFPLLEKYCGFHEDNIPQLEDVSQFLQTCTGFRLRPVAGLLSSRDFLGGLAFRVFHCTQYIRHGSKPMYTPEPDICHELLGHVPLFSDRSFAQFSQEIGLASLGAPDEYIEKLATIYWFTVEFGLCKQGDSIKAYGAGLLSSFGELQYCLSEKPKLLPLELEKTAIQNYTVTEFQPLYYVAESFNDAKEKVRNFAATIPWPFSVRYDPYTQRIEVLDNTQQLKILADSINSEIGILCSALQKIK

| SMILES | AC50 [nM] |
| --- | --- |
| O=C(c1oc(C2(O)CCC2)nc1C(F)(F)F)N1CCc2[nH]cnc2[C@@H]1c1nc2ccccc2s1 [Example 1566, (R)-(4-(benzo[d]thiazol-2-yl)-6,7-dihydro-1H-imidazo[4,5-c]pyridin-5(4H)-yl)(2-(1-hydroxycyclobutyl)-4-(trifluoromethyl)oxazol-5-yl)methanone] | < 500 |
| O=C(c1nnc(-c2ccccn2)o1)N1CCc2[nH]cnc2[C@@H]1c1nc2cc(F)ccc2s1 [Example 1747, (R)-(4-(5-fluorobenzo[d]thiazol-2-yl)-6,7-dihydro-1H-imidazo[4,5-c]pyridin-5(4H)-yl)(5-(pyridin-2-yl)-1,3,4-oxadiazol-2-yl)methanone] | 500 to 1000 |
| O=C(CC1(O)CCC1)N1CCc2[nH]cnc2[C@@H]1c1nc2c(F)cccc2s1 [Example 1648, (R)-1-(4-(4-fluorobenzo[d]thiazol-2-yl)-6,7-dihydro-1H-imidazo[4,5-c]pyridin-5(4H)-yl)-2-(1-hydroxycyclobutyl)ethanone] | 1000 to 5000 |
| O=C(c1cnn2cc(Br)ccc12)N1CCc2[nH]cnc2[C@H]1c1nc2c(F)cccc2s1 [Example 1235] | 500 to 1000 |
| Cn1nc(C(=O)N2CCc3[nH]cnc3[C@@H]2c2nc3ccccc3s2)c2ccccc21 [Example 1526, (R)-(4-(benzo[d]thiazol-2-yl)-6,7-dihydro-1H-imidazo[4,5-c]pyridin-5(4H)-yl)(1-methyl-1H-indazol-3-yl)methanone] | 1000 to 5000 |
| O=C(c1cnn2ccc(Br)cc12)N1CCc2[nH]cnc2[C@H]1c1nc2c(F)cccc2s1 [Example 1171] | < 500 |
| Cn1nc(C(F)(F)F)cc1C(=O)N1CCc2[nH]cnc2[C@H]1c1nc2c(F)cccc2s1 [Example 1787, (S)-(4-(4-fluorobenzo[d]thiazol-2-yl)-6,7-dihydro-1H-imidazo[4,5-c]pyridin-5(4H)-yl)(1-methyl-3-(trifluoromethyl)-1H-pyrazol-5-yl)methanone] | 1000 to 5000 |
| O=C(c1oc(-c2ccccn2)nc1Br)N1CCc2[nH]cnc2[C@H]1c1nc2ccccc2s1 [Example 1850] | < 500 |
| CC(C)(O)c1nc(Cl)c(C(=O)N2CCc3[nH]cnc3[C@@H]2c2nc3ccccc3s2)o1 [Example 1964, (R)-(4-(benzo[d]thiazol-2-yl)-6,7-dihydro-1H-imidazo[4,5-c]pyridin-5(4H)-yl)(4-chloro-2-(2-hydroxypropan-2-yl)oxazol-5-yl)methanone] | 1000 to 5000 |
| O=C(c1cnn2ccccc12)N1CCc2[nH]cnc2[C@H]1c1nc2ccc(Br)cc2[nH]1 [Example 940, (S)-(4-(6-bromo-1H-benzo[d]imidazol-2-yl)-6,7-dihydro-1H-imidazo[4,5-c]pyridin-5(4H)-yl)(pyrazolo[1,5-a]pyridin-3-yl)methanone] | 500 to 1000 |
| Cn1nc(Cl)cc1C(=O)N1CCc2[nH]cnc2[C@@H]1c1nc2ccccc2s1 [Example 1924, (R)-(4-(benzo[d]thiazol-2-yl)-6,7-dihydro-1H-imidazo[4,5-c]pyridin-5(4H)-yl)(3-chloro-1-methyl-1H-pyrazol-5-yl)methanone] | 1000 to 5000 |

same assay, conditions: A375 cells expressing human R408W PAH; 24 hrs with compound; 13C-Tyrosine by LC-MS; average where tested multiple times; read-out: AC50

| SMILES | AC50 [nM] |
| --- | --- |
| Cc1cc(C(=O)N2CCc3[nH]cnc3C2c2nc3c(F)cccc3s2)n(-c2ccc(F)cc2)n1 (stereo not drawn) | > 5000 |
| Cc1nc(C(C)(C)S(C)(=O)=O)oc1C(=O)N1CCc2[nH]cnc2C1c1nc2c(F)cccc2s1 (stereo not drawn) | 1000 to 5000 |
| Cc1nc(CCCN(C)C)oc1C(=O)N1CCc2[nH]cnc2C1c1nc2ccccc2s1 (stereo not drawn) | > 5000 |
| Cn1nnc(C(=O)N2CCc3[nH]cnc3C2c2nc3c(F)cccc3s2)n1 (stereo not drawn) | > 5000 |
| O=C(c1nc2ccccc2s1)N1CCc2[nH]cnc2C1c1nc2ccc(F)cc2[nH]1 (stereo not drawn) [listing 1 of 2 here] | > 5000 |
| CC(=O)N1CCc2[nH]cnc2C1c1nc2ccccc2[nH]1 (stereo not drawn) | > 5000 |
| CC1CN(C(=O)c2cnc(N3CCOCC3)o2)C(c2nc3ccccc3s2)c2nc[nH]c21 (stereo not drawn) | 1000 to 5000 |
| CC(C)(O)Cn1cc(C(=O)N2CCc3[nH]cnc3C2c2nc3c(F)cccc3s2)cn1 (stereo not drawn) | 1000 to 5000 |
| O=C(c1nc2ccccc2s1)N1CCc2[nH]cnc2C1c1nc2ccc(F)cc2[nH]1 (stereo not drawn) [listing 2 of 2 here] | 1000 to 5000 |
| CN(C)Cc1nc(C(=O)N2CCc3[nH]cnc3C2c2nc3ccccc3s2)no1 (stereo not drawn) | > 5000 |
